Measured values: publication PMC11678221, “Design, Synthesis and Molecular Modeling of Pyrazolo[1,5-a]pyrimidine Derivatives as Dual Inhibitors of CDK2 and TRKA Kinases with Antiproliferative Activity” (Pharmaceuticals, 2024)
One block for each compound: values may come before it.

Tests used:
[1] = target: T1, TrkA (Homo sapiens, UniProt P04629); assay: TRKA inhibition assay (BPS Bioscience kit, Kinase-Glo Max luminescence); assay type: biochemical; details: four concentrations 0.01, 0.1, 1, 10 µM, triplicate, mean ± SD, read-out: Enzyme Inhibition IC50 TRK-A
T1 construct: purchased BPS Bioscience, San Diego, CA, USA 79548
T1 sequence (P04629 33-796): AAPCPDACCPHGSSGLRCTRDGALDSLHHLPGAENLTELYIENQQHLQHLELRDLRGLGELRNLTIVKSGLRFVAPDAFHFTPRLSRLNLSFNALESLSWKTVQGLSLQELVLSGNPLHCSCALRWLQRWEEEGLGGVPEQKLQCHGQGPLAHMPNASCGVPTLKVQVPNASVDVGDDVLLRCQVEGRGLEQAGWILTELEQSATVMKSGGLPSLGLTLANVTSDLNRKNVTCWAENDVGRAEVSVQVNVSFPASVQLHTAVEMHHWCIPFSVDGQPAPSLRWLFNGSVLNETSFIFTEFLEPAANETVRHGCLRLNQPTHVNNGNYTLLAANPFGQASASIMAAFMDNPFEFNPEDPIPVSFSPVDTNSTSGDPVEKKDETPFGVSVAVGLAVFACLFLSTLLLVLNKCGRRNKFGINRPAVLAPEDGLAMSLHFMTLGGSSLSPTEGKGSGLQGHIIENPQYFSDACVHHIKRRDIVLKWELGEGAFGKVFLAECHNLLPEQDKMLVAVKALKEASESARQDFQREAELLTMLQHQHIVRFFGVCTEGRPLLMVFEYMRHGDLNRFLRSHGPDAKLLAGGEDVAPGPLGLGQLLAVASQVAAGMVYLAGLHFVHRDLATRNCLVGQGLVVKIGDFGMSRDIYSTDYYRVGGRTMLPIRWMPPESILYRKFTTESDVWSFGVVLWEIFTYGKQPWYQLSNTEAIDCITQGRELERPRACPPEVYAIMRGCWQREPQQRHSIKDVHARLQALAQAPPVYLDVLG

[2] = system: CCRF-CEM; assay: NCI 60 cell line single-dose growth inhibition (SRB); assay type: cell-based, human; details: 10 µM; leukemia CCRF-CEM
Experimental: (§1) The developed pyrazolopyrimidines 6a–t, 11a–g, and 12 were evaluated by the National Cancer Institute (NCI) Developmental Therapeutic Program https://dtp.cancer.gov/ (accessed on 17 July 2022) for their prospective efficacy of growth-inhibitory activity verses 60 different carcinoma cell lines of NCI. Human carcinoma cell lines originated across nine distinct cancer types: central nervous system, cancer of the blood, colorectal, breast, ovary, kidney, melanoma, prostatic, and lung carcinomas. All compounds have been assessed with a concentration of 10 µM versus the collection of 60 diverse cancer cell lines. Outcomes are expressed as percentages of growth inhibition (GI %) for the evaluated compounds versus the complete set of cell lines (Supplementary Materials).
(§2) Performed by US National Cancer Institute according to previously reported standard procedure as follows: Cells were plated into 96-well microtiter plates with each well equipped with 100 µL of culture medium at densities between 5000 and 40,000 cells per well, based on the specific cell line’s doubling time. After seeding, incubation was carried out at 37 °C in 5% carbon dioxide, 95% […] environment with 100% relative humidity for one day to permit the cells to attach before proceeding to treatment with the tested compounds. To determine the cell count at drug exposure time of (Tz), two plates were per fixed cell line using trichloroacetic acid after the 24 h incubation period.
(§3) The studied compounds were initially dispersed in dimethyl sulfoxide at a concentration 400 times exceeding the intended final concentration and subsequently frozen until required. Before the application, an aliquot of the stock solution was warmed to room temperature and diluted in a complete medium containing 50 µg per mL of gentamicin to attain twice the intended concentration. Subsequently, 100 µL of the diluted compound was introduced to every well holding 100 µL of the medium to achieve the intended concentration. After the compound was added, the plates were incubated under the same conditions for a further 48 h at 37 °C.
(§4) For the adherent cells, the experiment was concluded via the introduction of 50 µL of cold 50% (w/v) trichloroacetic acid into each well, resulting in a last TCA concentration for 10%. Then, the cell plates were incubated at 4 °C for about one hour to fix the cells.
(§5) After the removal of the supernatant, the plates were washed with tap water five times before being dried using air. For the suspension cells, a similar process was followed, but 50 µL of 80% TCA was used, yielding a final TCA concentration of 16% for the cells fixed in the well’s bottom.
(§6) Following cell fixation, 100 µL of the 0.4% (wight/volume) solution of sulforhodamine B with acetic acid at a concentration of 1% was introduced to all individual wells, and then incubated at ambient temperature for 10 min. The plates were washed five times with 1% acetic acid to eliminate any residual dye, followed by air-drying. Next, […] Tris base was added to disperse the bonded dye, and, using an automatic microplate reader, the absorbance was determined at 515 nm.
(§7) The percentage of growth inhibition measurement depended on the absorbance values at the baseline time point […], as well as during the control growth phase (C) and the test growth phase (Ti). When Ti was greater than or equal to Tz, the calculation formula used [(Ti − Tz)/(C − Tz)] × 100. If Ti was less than Tz, the formula used was (Ti − Tz)/Tz × 100.

[3] = system: RFX 393; assay: as above; assay type: cell-based, human; details: 10 µM; kidney carcinoma cell line RFX 393
Experimental: as §1, §2, §3, §4, §5, §6, §7

[4] = target: T2, CDK2/CyclinA2 (Homo sapiens, UniProt P24941); assay: CDK2 inhibition assay (BPS Bioscience kit, Kinase-Glo Max luminescence); assay type: biochemical; details: four concentrations 0.01, 0.1, 1, 10 µM, triplicate, mean ± SD, read-out: Enzyme Inhibition IC50 CDK-2
T2 construct: purchased BPS Bioscience, San Diego, CA, USA 79599

[5] = system: SNB-75; assay: NCI 60 cell line single-dose growth inhibition (SRB); assay type: cell-based, human; details: 10 µM; central nervous system SNB-75 carcinoma cell line
Experimental: as §1, §2, §3, §4, §5, §6, §7

[6] = system: Trk; details: known inhibitor, in Figure 2; no reference given; cited from earlier work
[7] = system: RFX 393 cells; assay: Apoptosis and necrosis investigation (Annexin V/PI flow cytometry); assay type: cell-based; details: GI50 concentration, 48 h; for Apoptosis Late: control 0.15, % given in Figure 10 only; for Apoptosis Early: control 0.64, % given in Figure 10 only; for Necrosis: control 1.92, % given in Figure 10 only; for Apoptosis Total: control 2.71, % given in Figure 10 only
Experimental: To assess the influence of compounds 6s and 6t on cell death pathways, RFX 393 cells were subjected to the compounds for 48 h and then stained using Annexin V/PI. […] The comprehensive outcomes are provided in Table 4 and graphically illustrated in Figure 10.
RFX 393 cells underwent treatment with the GI50 concentrations of compounds 6s and 6t for 48 h. Following the treatment, the cells were collected, dispersed in 0.5 mL of PBS, and subjected to centrifugation. They were then preserved in 70% (v/v) ethanol at 4 °C and subsequently rinsed with PBS. The fixed cells were then centrifuged again, resuspended in PBS, centrifuged once more, and stained with PE Annexin V and propidium iodide (PI) according to the manufacturer’s instructions. The samples were subsequently analyzed using flow cytometry with a FACScalibur instrument (Becton Dickinson, Franklin Lakes, NJ, USA). Data on cell cycle distributions were processed with the aid of Phoenix Flow Systems and Verity Software House.

[8] = system: RFX 393 cells; assay: Cell cycle investigation (PI flow cytometry); assay type: cell-based; details: GI50 concentration, 48 h; for %S: control 29.33; for %G0–G1: control 57.08
Experimental: RFX 393 cells underwent treatment with pyrazolopyrimidine derivatives 6s and 6t at their GI50 concentrations for 48 h.
RFX 393 cells underwent treatment with compounds 6s and 6t at their respective GI50 concentrations for 48 h. Following treatment, the cells were collected, dispersed in 0.5 mL of PBS, and subjected to centrifugation. They were then preserved in 70% (v/v) ethanol at 4 °C and subsequently rinsed with PBS, treated with RNase, and propidium iodide (PI) was used to stain the cells. Flow cytometric measurements were carried out employing a FACScalibur system (Becton Dickinson, Franklin Lakes, NJ, USA). The distributions of the cell cycle were subsequently calculated with the aid of software from Phoenix Flow Systems and Verity Software House (ModFit LT V6.0).

[9] = system: RFX 393; assay: In vitro cytotoxicity on renal carcinoma cell line (MTT assay); assay type: cell-based; details: renal carcinoma cell line RFX 393, read-out: RFX393 (IC50)
[10] = system: RPMI-8226; assay: NCI 60 cell line single-dose growth inhibition (SRB); assay type: cell-based, human; details: 10 µM; leukemia RPMI-8226
Experimental: as §1, §2, §3, §4, §5, §6, §7

[11] = system: HOP-92; assay: as above; assay type: cell-based, human; details: 10 µM; lung carcinoma HOP-92
Experimental: as §1, §2, §3, §4, §5, §6, §7

[12] = system: NCI-H460; assay: as above; assay type: cell-based, human; details: 10 µM; lung carcinoma NCI-H460
Experimental: as §1, §2, §3, §4, §5, §6, §7

[13] = system: 56 cell lines; assay: NCI 60 cell line single-dose growth inhibition, mean over the panel; assay type: cell-based; details: Homo sapiens, mean across 56 cell lines, read-out: mean growth inhibition (GI%)
Experimental: as §1, with “Materials). […]” for “Materials).”
Following cell fixation, 100 µL of the 0.4% (wight/volume) solution of sulforhodamine B with acetic acid at a concentration of 1% was introduced to all individual wells, and then incubated at ambient temperature for 10 min. […] Next, 10 µM Tris base was added to disperse the bonded dye, and, using an automatic microplate reader, the absorbance was determined at 515 nm.
The percentage of growth inhibition measurement depended on the absorbance values at the baseline time point (T0), as well as during the control growth phase (C) and the test growth phase (Ti). […]

[14] = system: ACHN; assay: NCI 60 cell line single-dose growth inhibition (SRB); assay type: cell-based, human; details: 10 µM; renal cancer cell line ACHN
Experimental: as §1, §2, §3, §4, §5, §6, §7

[15] = system: HOP-62; assay: as above; assay type: cell-based, human; details: 10 µM; lung carcinoma HOP-62
Experimental: as §1, §2, §3, §4, §5, §6, §7

Compound: CCOC(=O)c1c(Nc2ccccc2)nn2c(-c3ccc([N+](=O)[O-])cc3)ccnc12 [6q, Ethyl 7-(4-Nitrophenyl)-2-(anilinyl)pyrazolo[1,5-a]pyrimidine-3-carboxylate]
GI % [3]: 52.08%

Compound: O=C(Nc1cnn2ccc(N3CCC[C@@H]3c3cc(F)ccc3F)nc12)N1CC[C@H](O)C1 [Larotrectinib]
IC50 [6]: 2 nM

Compound: CN[C@@H]1C[C@H]2O[C@@](C)([C@@H]1OC)n1c3ccccc3c3c4c(c5c6ccccc6n2c5c31)C(=O)NC4 [Staurosporine, reference compound]
IC50 [9]: 70 nM

Compound: CCOC(=O)c1c(Nc2ccccc2)nn2c(-c3ccc(OC)cc3)ccnc12 [6m, Ethyl 7-(4-Methoxyphenyl)-2-(anilinyl)pyrazolo[1,5-a]pyrimidine-3-carboxylate]
IC50 [1]: 960 ± 40 nM
GI % [3]: 102.68%
IC50 [4]: 1060 ± 90 nM

Compound: CCOC(=O)c1c(Nc2ccccc2)nn2c(-c3ccccc3)ccnc12 [6k, Ethyl 7-Phenyl-2-(anilinyl)pyrazolo[1,5-a]pyrimidine-3-carboxylate]
IC50 [1]: 1170 ± 90 nM
GI % [2]: 90.41%
GI % [10]: 69.31%
IC50 [4]: 1580 ± 130 nM

Compound: CCOC(=O)c1c(Nc2ccccc2)nn2c(-c3ccco3)ccnc12 [6s, Ethyl 7-(Furan-2-yl)-2-(anilinyl)pyrazolo[1,5-a]pyrimidine-3-carboxylate]
Apoptosis Late [7]: 7.74%
Apoptosis Early [7]: 20.29%
Necrosis [7]: 4.04%
Apoptosis Total [7]: 32.07%
%S [8]: 11.49%
%G0–G1 [8]: 84.36%
IC50 [9]: 11700 ± 400 nM

Compound: COc1ccc(-c2ccnc3c(C#N)c(Nc4ccccc4)nn23)cc1OC [6d, 7-(3,4-Dimethoxyphenyl)-2-(anilinyl)pyrazolo[1,5-a]pyrimidine-3-carbonitrile]
IC50 [1]: 570 ± 20 nM
GI % [15]: 100.07%
GI % [3]: 84.17%
IC50 [4]: 550 ± 40 nM

Compound: N#Cc1c(Nc2ccccc2)nn2c(-c3ccco3)ccnc12 [6i, 7-(Furan-2-yl)-2-(anilinyl)pyrazolo[1,5-a]pyrimidine-3-carbonitrile]
GI % [11]: 68.96%

More lines, main results first:

IC50 [1]: 1590 ± 110 nM
IC50 [4]: 760 ± 40 nM
Compound: CCOC(=O)c1c(Nc2ccccc2)nn2c(-c3ccc(Cl)cc3)ccnc12 [6o, Ethyl 7-(4-Chlorophenyl)-2-(anilinyl)pyrazolo[1,5-a]pyrimidine-3-carboxylate]
GI % [2]: 83.85%
GI % [3]: 110.55%

IC50 [1]: 890 ± 30 nM
IC50 [4]: 220 ± 20 nM
Compound: CCOC(=O)c1c(Nc2ccccc2)nn2c(-c3ccco3)c(C#N)cnc12 [11g, Ethyl 6-Cyano-7-(furan-2-yl)-2-(anilinyl)pyrazolo[1,5-a]pyrimidine-3-carboxylate]
GI % [5]: 69.53%

IC50 [4]: 90 ± 10 nM
Compound: CCOC(=O)c1c(Nc2ccccc2)nn2c(-c3cccs3)ccnc12 [6t, Ethyl 2-(Anilinyl)-7-(thiophen-2-yl)pyrazolo[1,5-a]pyrimidine-3-carboxylate]
Apoptosis Late [7]: 9.49%
Apoptosis Early [7]: 11.15%
Necrosis [7]: 3.58%
Apoptosis Total [7]: 24.22%
%S [8]: 15.26%
%G0–G1 [8]: 78.01%
IC50 [9]: 19900 ± 670 nM
GI % [3]: 106.08%

IC50 [1]: 970 ± 40 nM
IC50 [4]: 200 ± 20 nM
Compound: CCOC(=O)c1c(Nc2ccccc2)nn2c(-c3ccc4ccccc4c3)ccnc12 [6r, Ethyl 7-(Naphthalen-2-yl)-2-(anilinyl)pyrazolo[1,5-a]pyrimidine-3-carboxylate]
GI % [3]: 81.71%

IC50 [1]: 980 ± 40 nM
IC50 [4]: 780 ± 40 nM
Compound: CCOC(=O)c1c(Nc2ccccc2)nn2c(-c3ccc(OC)c(OC)c3)ccnc12 [6n, Ethyl 7-(3,4-Dimethoxyphenyl)-2-(anilinyl)pyrazolo[1,5-a]pyrimidine-3-carboxylate]
GI % [11]: 94.73%
GI % [12]: 52.11%
inhibition at 10 µM [13]: 43.9%

IC50 [1]: 1340 ± 80 nM
IC50 [4]: 660 ± 40 nM
Compound: CCOC(=O)c1c(Nc2ccccc2)nn2c(-c3ccc(Br)cc3)ccnc12 [6p, Ethyl 7-(4-Bromophenyl)-2-(anilinyl)pyrazolo[1,5-a]pyrimidine-3-carboxylate]
GI % [11]: 71.8%
GI % [12]: 66.12%
GI % [3]: 112.34%
GI % [14]: 66.02%
